Results published in EP0072121A1, “Beta-lactam antibiotics” (BEECHAM GROUP PLC, priority 1981, dated 1983).
In brackets after ≈: the same amount, converted by molar mass.

What was measured:
Assay in all cases: standard MIC test
Type in all cases: cell-based
[1] = system: Staphylococcus aureus Oxford
Excerpt: (§1) In a standard MIC test the compound of Examples 1 and 2 afforded the following data (µg/ml).

[2] = system: Escherichia coli O111 [E8]
Excerpt: as §1

Shigella sonnei MB11967 = system: Shigella sonnei MB11967
Excerpt: as §1

[3] = system: Proteus mirabilis 977 [13]
Excerpt: as §1

Bacillus subtilis A = system: Bacillus subtilis A
Excerpt: as §1

Pseudomonas Dalgleish = system: Pseudomonas Dalgleish
Excerpt: as §1

[4] = system: Klebsiella aerogenes A [T767]
Excerpt: as §1

[5] = system: Salmonella typhimurium CT10; settings: Salmonella enterica
Excerpt: as §1

[6] = system: Staphylococcus aureus Russell MB9
Excerpt: as §1

[7] = system: Staphylococcus aureus 1517
Excerpt: as §1

Citrobacter freundii E8 = system: Citrobacter freundii E8
Excerpt: as §1

[8] = system: Klebsiella aerogenes Ba95
Excerpt: as §1

Proteus vulgaris W091 = system: Proteus vulgaris W091
Excerpt: as §1

Escherichia coli JT20 = system: Escherichia coli JT20
Excerpt: as §1

[9] = system: Escherichia coli JT39 [E96]
Excerpt: as §1

Escherichia coli ESS = system: Escherichia coli ESS
Excerpt: as §1

Proteus morganii 1580 = settings: Morganella morganii
Excerpt: as §1

[10] = system: Streptococcus pneumoniae CN33
Excerpt: as §1

Streptocuccus faecalis I = system: Streptocuccus faecalis I
Excerpt: as §1

[11] = system: Enterobacter cloacae N1 [T753]
Excerpt: as §1

Escherichia coli JT410 = system: Escherichia coli JT410
Excerpt: as §1

[12] = system: Pseudomonas aeruginosa A [11]
Excerpt: as §1

Proteus rettgeri WM16 = settings: Providencia rettgeri
Excerpt: as §1

[13] = system: Streptocuccus pyogenes CN10
Excerpt: as §1

| SMILES | MIC [1] | MIC [2] | MIC (Shigella sonnei MB11967) | MIC [3] | MIC (Bacillus subtilis A) | MIC (Pseudomonas Dalgleish) | MIC [4] | MIC [5] | MIC [6] | MIC [7] | MIC (Citrobacter freundii E8) | MIC [8] | MIC (Proteus vulgaris W091) | MIC (Escherichia coli JT20) | MIC [9] | MIC (Escherichia coli ESS) | MIC (Proteus morganii 1580) | MIC (Streptocuccus faecalis I) | MIC [11] | MIC (Escherichia coli JT410) | further results |
| --- | --- | --- | --- | --- | --- | --- | --- | --- | --- | --- | --- | --- | --- | --- | --- | --- | --- | --- | --- | --- | --- |
| CC(=N)NCCOC(=O)/C=C\SC1=C(C(=O)O)N2C(=O)[C@@H]([C@H](C)O)[C@H]2C1 [Ex.1, (5R,6R)-3-[(Z)-2-Acetimidoylaminoethyloxycarbonyl-ethenylthio]-6-[(S)-1-hydroxyethyl]-7-oxo-1-azabicyclo[3.2.0]hept-2-ene-2-carboxylic acid] | ≤ 0.1 µg/mL | 0.2 µg/mL (≈ 0.522 µM) | 0.2 µg/mL (≈ 0.522 µM) | 0.4 µg/mL (≈ 1.04 µM) | ≤ 0.1 µg/mL | 25 µg/mL (≈ 65.2 µM) | 0.2 µg/mL (≈ 0.522 µM) | 0.2 µg/mL (≈ 0.522 µM) | ≤ 0.1 µg/mL | 0.8 µg/mL (≈ 2.09 µM) | 0.4 µg/mL (≈ 1.04 µM) | 3.1 µg/mL (≈ 8.09 µM) | 3.1 µg/mL (≈ 8.09 µM) | 3.1 µg/mL (≈ 8.09 µM) | 0.2 µg/mL (≈ 0.522 µM) | ≤ 0.1 µg/mL | 1.6 µg/mL (≈ 4.17 µM) | ≤ 0.1 µg/mL | 3.1 µg/mL (≈ 8.09 µM) | 0.2 µg/mL (≈ 0.522 µM) | MIC [10]: ≤ 0.1 µg/mL; MIC [12]: 25 µg/mL (≈ 65.2 µM); MIC (Proteus rettgeri WM16): 1.6 µg/mL (≈ 4.17 µM); MIC [13]: ≤ 0.1 µg/mL |
| CC(=N)NCCOC(=O)/C=C\SC1=C(C(=O)O)N2C(=O)[C@H]([C@@H](C)O)[C@H]2C1 [Ex.2, (5R,6S)-3-[(S)-2-Acetimidoylaminoethyloxycarbonyl-ethenylthio]-6-[(R)-1-hydroxyethyl]-7-oxo-1-azabicyclo [3.2.0]hept-2-ene-2-carboxylic acid] | ≤ 0.1 µg/mL | 0.2 µg/mL (≈ 0.522 µM) | 0.2 µg/mL (≈ 0.522 µM) | 0.8 µg/mL (≈ 2.09 µM) | < 0.1 µg/mL | 25 µg/mL (≈ 65.2 µM) | 0.2 µg/mL (≈ 0.522 µM) | 0.2 µg/mL (≈ 0.522 µM) | ≤ 0.1 µg/mL | 1.6 µg/mL (≈ 4.17 µM) | 0.4 µg/mL (≈ 1.04 µM) | 0.4 µg/mL (≈ 1.04 µM) | 0.8 µg/mL (≈ 2.09 µM) | 0.2 µg/mL (≈ 0.522 µM) | 0.2 µg/mL (≈ 0.522 µM) | 0.2 µg/mL (≈ 0.522 µM) | 1.6 µg/mL (≈ 4.17 µM) | 0.2 µg/mL (≈ 0.522 µM) | 0.8 µg/mL (≈ 2.09 µM) | 0.2 µg/mL (≈ 0.522 µM) | MIC [12]: 25 µg/mL (≈ 65.2 µM); MIC (Proteus rettgeri WM16): 0.8 µg/mL (≈ 2.09 µM) |
